Measured values: patent US20230114728A1 (Venatorx Pharmaceuticals, Inc., priority 2019, published 2023)
In brackets after ≈: the same amount, converted by molar mass.

What was measured:
P. aeruginosa PBP3 = biological target: T1, P. aeruginosa PBP3 (Pseudomonas aeruginosa, UniProt G3XD46); test: Bocillin-FL fluorescence polarization competition binding assay, P. aeruginosa PBP3; details: fluorescence polarization competition binding assay using Bocillin-FL
T1 construct: made in house
Text: (§1) Example I: Experimental Method for Penicillin-Binding Protein Binding Assays with Bocillin-FL Via Fluorescence Polarization
(§2) To determine the ability of boronic acid-based test PBP inhibitors to bind Penicillin Binding Proteins (PBPs), Bocillin-FL (fluorescently-labeled penicillin V; ThermoFisher Scientific) was used in a fluorescence polarization (FP) competition binding assay to assess inhibitor binding to PBP2, PBP3 or PBP4 from Escherichia coli (K12), PBP3 from Pseudomonas aeruginosa (PA01), PBP1a, PBP2 and PBP3 from Acinetobacter baumannii (ATCC 19606), and PBP2 from Neiserria gonorrheae (FA19). PBPs were cloned and purified as described previously (E. coli PBPs, King, D. T, et al., ACS Infectious Diseases 2015, 1, 175-184; P. aeruginosa PBP3, Han et. al., PNAS 2010, 107 (51), 22002-22007; A. baumannii PBPs, Penwell et. al., Antimicrob. Agents Chemother. 2015, 59 (3), 1680-1689; N. gonorrhoeae PBP2, Singh et. al., J Biol. Chem. 2019, 294 (38), 14020-14032). To establish assay conditions for competition binding, enzyme titration/saturation binding experiments were initially performed. Bocillin-FL was prepared at 0.2 μM in a buffer comprised of 50 mM Hepes (pH 8.0), 300 mM NaCl and 5% (v/v) glycerol for reactions with E. coli, P. aeruginosa and N. gonorrhoeae PBPs, and 25 mM Tris (pH 8.0), 200 mM NaCl and 10% (v/v) glycerol and 0.005% (v/v) Tween 20 for reactions with A. baumannii PBPs. Saturation binding was performed by mixing 40 μl of PBP solutions ranging in concentrations from 0-24 μM with 40 μl of the 0.2 μM Bocillin-FL solution, in individual wells of a black 384-well microplate. FP was measured immediately upon mixing (Excitation, 490 nm; Emission, 520 nm; g-factor, 0.96), using a Cytation3 (BioTek) microplate reader and measured continuously for up to 120 minutes. […] The competition binding assay (80 μl final volume) was validated using beta-lactams and PBPs at final concentrations of: 1.5 μM, E. coli PBP3; 0.75 μM, P. aeruginosa PBP3; 1 μM A. baumannii PBP1a; 2.5 μM A. baumannii PBP2; 0.2 μM A. baumannii PBP3; and […] N. gonorrhoeae PBP2. Bocillin-FL was at 0.1 μM (0.05 μM with A. baumannii PBP1a) and beta-lactam concentrations ranged from 0-1000 μM. […] Bocillin-FL was added and the FP immediately measured for up to 60 minutes (90 minutes for E. coli PBP2). […] The beta-lactam potency was reported as the concentration of beta-lactam required to reduce the amount of PBP bound-Bocillin-FL by 50% (EC50). […] Binding assays for boronic acid PBP inhibitors were performed in an identical fashion for the respective PBPs

[1] = system: P. aeruginosa (ΔmexAB-oprM); test: Broth microdilution MIC in CAMHB; type: cell-based; details: Pseudomonas aeruginosa, read-out: Minimum Inhibitory Concentration, P. aeruginosa ΔmexAB-OprM
Procedure: (§3) Example III: In Vitro Antibacterial Assays
(§4) To determine the ability of test compounds to inhibit the growth of bacterial strains, classic cell based broth microdilution minimum inhibitory concentration (MIC) assays were employed. MIC assays are performed according to CLSI methods except where otherwise noted (CLSI, 2018 and CLSI, 2019). The reference type strain E. coli ATCC 25922; the wild-type parent strain E. coli AG100; the hyper-permeable E. coli 901C and E. coli D22; and the E. coli AG100A strain lacking the acrAB efflux pump encoding genes were used to determine the ability of the PBP inhibitors to penetrate the outer membrane of gram-negative bacteria and inhibit bacterial growth. […] The P. aeruginosa ATCC 27853 and A. baumannii ATCC 19606, along with the hyper-permeable P. aeruginosa ATCC 35151 and an engineered efflux pump-compromised strain of P. aeruginosa (ΔmexAB-oprM) were used to determine the ability of PBP inhibitors to penetrate the outer membrane of P. aeruginosa and A. baumannii and assess antibacterial activity against these important gram-negative organisms.
(§5) Briefly, cryo-preserved bacterial cultures of challenge strains are streaked for isolation on appropriate agar medium, in this case cation-adjusted Mueller Hinton agar. Following incubation to allow growth of the colonies, plates are sealed with parafilm and stored refrigerated for up to two weeks. For preparation of assay inoculum and to ensure low variability, at least 5 colonies are picked from the agar plates with an inoculating loop and aseptically transferred to a culture tube containing 3 mL of cation-adjusted Mueller Hinton broth (CAMHB). The broth culture is grown for 3-5 hours at 37° C. with shaking at 200 rpm. Meanwhile, 2-fold serial dilutions of test compounds are conducted in a 96-well plate with a final volume of 75 μL per well at 2-fold the final desired concentration. After the dilution plates are set up the growing cultures are then diluted in a cuvette containing CAMHB and the optical density is measured at 600 nm. The inoculum is diluted such that 75 μL of this culture in CAMHB results in a starting bacterial concentration of 2-8×10^5 CFU/mL when added to the dilution plates. The plates are incubated for 16-20 hours for Enterobacteriaceae and Pseudomonas and 20-24 hours for Acinetobacter at 37° C. The MIC values are read visually as the lowest concentration well with no bacterial growth.

[2] = system: K. pneumoniae 848844 producing SHV-11 and KPC-2; test: Broth microdilution MIC in CAMHB; type: cell-based; details: Klebsiella pneumoniae, read-out: Minimum Inhibitory Concentration, K. pneumoniae 848844
Procedure: as §3, §4, §5

E. coli 901C = test: Broth microdilution MIC in CAMHB; type: cell-based; details: Escherichia coli; MHB; hyper-permeable E. coli 901C; read-out: Minimum Inhibitory Concentration, E. coli 901C
Procedure: as §3, §4, §5

E. coli AG100 = test: Broth microdilution MIC in CAMHB; type: cell-based; details: Escherichia coli; MHB; wild-type parent strain E. coli AG100; read-out: Minimum Inhibitory Concentration, E. coli AG100
Procedure: as §3, §4, §5

E. coli D22 = test: Broth microdilution MIC in CAMHB; type: cell-based; details: Escherichia coli; MHB; hyper-permeable E. coli D22; read-out: Minimum Inhibitory Concentration, E. coli D22
Procedure: as §3, §4, §5

P. aeruginosa ATCC 35151 = test: Broth microdilution MIC in CAMHB; type: cell-based; details: Pseudomonas aeruginosa, ATCC35151; MHB; hyper-permeable strain; read-out: Minimum Inhibitory Concentration, P. aeruginosa ATCC 35151
Procedure: as §3, §4, §5

[3] = system: K. pneumoniae SI-117 producing VIM-1; test: Broth microdilution MIC in CAMHB; type: cell-based; details: Klebsiella pneumoniae, read-out: Minimum Inhibitory Concentration, K. pneumoniae SI-117
Procedure: as §3, §4, §5

[4] = system: K. pneumoniae UMM producing SHV-5 and KPC-2; test: Broth microdilution MIC in CAMHB; type: cell-based; details: Klebsiella pneumoniae, read-out: Minimum Inhibitory Concentration, K. pneumoniae UMM
Procedure: as §3, §4, §5

E. coli AG100A = test: Broth microdilution MIC in CAMHB; type: cell-based; details: Escherichia coli, read-out: Minimum Inhibitory Concentration, E. coli AG100A
Procedure: as §3, §4, §5

A. baumannii ATCC 19606 = test: Broth microdilution MIC in CAMHB; type: cell-based; details: Acinetobacter baumannii, ATCC19606; MHB; read-out: Minimum Inhibitory Concentration, A. baumannii ATCC 19606
Procedure: as §3, §4, §5

P. aeruginosa ATCC 27853 = test: Broth microdilution MIC in CAMHB; type: cell-based; details: Pseudomonas aeruginosa, ATCC27853; MHB; read-out: Minimum Inhibitory Concentration, P. aeruginosa ATCC 27853
Procedure: as §3, §4, §5

E. coli ATCC 25922 = test: Broth microdilution MIC in CAMHB; type: cell-based; details: Escherichia coli, ATCC25922; MHB; E. coli ATCC 25922; read-out: Minimum Inhibitory Concentration, E. coli 25922
Procedure: as §3, §4, §5

E. coli K12 PBP3 = biological target: T2, E. coli K12 PBP3 (Escherichia coli, UniProt P0AD68); test: biochemical; type: binding
T2 construct: made in house
T2 sequence (P0AD68 1-577): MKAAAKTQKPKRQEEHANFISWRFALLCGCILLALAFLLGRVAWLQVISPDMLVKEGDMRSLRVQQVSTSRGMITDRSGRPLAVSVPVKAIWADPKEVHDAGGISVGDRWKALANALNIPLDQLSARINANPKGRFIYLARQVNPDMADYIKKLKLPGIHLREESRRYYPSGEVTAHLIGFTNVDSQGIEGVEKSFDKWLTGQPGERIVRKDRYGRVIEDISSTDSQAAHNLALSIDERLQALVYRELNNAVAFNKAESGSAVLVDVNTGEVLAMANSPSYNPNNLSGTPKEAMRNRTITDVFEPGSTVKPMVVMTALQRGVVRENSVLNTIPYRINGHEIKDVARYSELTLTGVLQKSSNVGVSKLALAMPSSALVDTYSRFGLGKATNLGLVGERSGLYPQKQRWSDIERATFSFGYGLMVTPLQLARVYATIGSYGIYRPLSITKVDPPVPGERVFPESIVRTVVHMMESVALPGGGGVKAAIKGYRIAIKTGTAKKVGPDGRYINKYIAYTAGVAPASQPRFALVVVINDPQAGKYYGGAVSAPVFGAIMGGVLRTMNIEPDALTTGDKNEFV
Text: as §1, §2

T1 sequence (G3XD46 whole entry): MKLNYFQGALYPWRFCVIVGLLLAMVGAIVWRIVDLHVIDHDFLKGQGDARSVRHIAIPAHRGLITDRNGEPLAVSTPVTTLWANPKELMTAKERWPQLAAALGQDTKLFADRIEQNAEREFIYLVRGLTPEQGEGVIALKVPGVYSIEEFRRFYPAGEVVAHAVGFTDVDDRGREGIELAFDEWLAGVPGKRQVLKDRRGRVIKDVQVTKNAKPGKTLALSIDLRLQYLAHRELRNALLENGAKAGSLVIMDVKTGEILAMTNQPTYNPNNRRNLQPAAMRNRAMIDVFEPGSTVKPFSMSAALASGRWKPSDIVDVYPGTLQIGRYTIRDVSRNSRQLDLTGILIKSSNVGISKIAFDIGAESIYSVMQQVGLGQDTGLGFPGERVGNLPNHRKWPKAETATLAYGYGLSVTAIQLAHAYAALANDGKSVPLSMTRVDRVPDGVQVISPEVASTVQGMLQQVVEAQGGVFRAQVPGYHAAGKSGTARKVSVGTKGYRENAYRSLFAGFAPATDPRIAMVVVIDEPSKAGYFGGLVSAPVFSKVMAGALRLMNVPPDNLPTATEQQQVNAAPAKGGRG

Row | SMILES | P. aeruginosa PBP3 Potency (P. aeruginosa PBP3) | MIC [1] | MIC [2] | MIC (E. coli 901C) | MIC (E. coli AG100) | MIC (E. coli D22) | MIC (P. aeruginosa ATCC 35151) | MIC [3] | MIC [4] | MIC (E. coli AG100A) | MIC (A. baumannii ATCC 19606) | MIC (P. aeruginosa ATCC 27853) | MIC (E. coli ATCC 25922) | EC50 (E. coli K12 PBP3)
1 | CCN1CCN(C(=O)N[C@@H](C(=O)N[C@H]2Cc3cccc(C(=O)O)c3OB2O)c2ccc(C(=O)O)c(Cl)c2F)C(=O)C1=O (single isomer, unassigned) [Example 222] | D (D represents a potency <10 μM) | 32 to 64 µg/mL (≈ 52.9 to 106 µM) | > 128 µg/mL | > 128 µg/mL | > 128 µg/mL | > 128 µg/mL | 0.5 to 1 µg/mL (≈ 0.827 to 1.65 µM) | 2 to 4 µg/mL (≈ 3.31 to 6.61 µM) | < 0.25 µg/mL | > 128 µg/mL | > 128 µg/mL | > 128 µg/mL | 32 to 64 µg/mL (≈ 52.9 to 106 µM) | –
2 | CCN1C[C@H](C)N(C(=O)N[C@@H](C(=O)N[C@H]2Cc3cccc(C(=O)O)c3OB2O)c2ccc(O)c(F)c2F)C(=O)C1=O [Example 240, (3R)-3-(2-(2,3-difluoro-4-hydroxyphenyl)-2-((S)-4-ethyl-6-methyl-2,3-dioxopiperazine-1-carboxamido)acetamido)-2-hydroxy-3,4-dihydro-2H-benzo[e][1,2]oxaborinine-8-carboxylic acid] | D (D represents a potency <10 μM) | 8 to 16 µg/mL (≈ 13.9 to 27.9 µM) | 32 to 64 µg/mL (≈ 55.7 to 111 µM) | > 128 µg/mL | > 128 µg/mL | 32 to 64 µg/mL (≈ 55.7 to 111 µM) | 2 to 4 µg/mL (≈ 3.48 to 6.96 µM) | 2 to 4 µg/mL (≈ 3.48 to 6.96 µM) | < 0.25 µg/mL | 32 to 64 µg/mL (≈ 55.7 to 111 µM) | > 128 µg/mL | > 128 µg/mL | 32 to 64 µg/mL (≈ 55.7 to 111 µM) | –
3 | NCCN1CCN(C(=O)N[C@@H](C(=O)N[C@H]2Cc3cccc(C(=O)O)c3OB2O)c2c(F)cccc2F)C(=O)C1=O (single isomer, unassigned) [Example 223] | D (D represents a potency <10 μM) | 32 to 64 µg/mL (≈ 57.2 to 114 µM) | > 128 µg/mL | > 128 µg/mL | > 128 µg/mL | > 128 µg/mL | 2 to 4 µg/mL (≈ 3.58 to 7.15 µM) | 8 to 16 µg/mL (≈ 14.3 to 28.6 µM) | 2 to 4 µg/mL (≈ 3.58 to 7.15 µM) | > 128 µg/mL | > 128 µg/mL | > 128 µg/mL | > 128 µg/mL | –
4 | O=C(O)c1cccc2c1OB(O)[C@@H](NC(=O)C(NC(=O)N1CCN(CCF)C(=O)C1=O)c1ccc(O)c(F)c1F)C2 (stereo partly drawn) [Example 235, (3R)-3-(2-(2,3-difluoro-4-hydroxyphenyl)-2-(4-(2-fluoroethyl)-2,3-dioxopiperazine-1-carboxamido)acetamido)-2-hydroxy-3,4-dihydro-2H-benzo[e][1,2]oxaborinine-8-carboxylic acid] | – | 8 to 16 µg/mL (≈ 13.8 to 27.7 µM) | 32 to 64 µg/mL (≈ 55.3 to 111 µM) | 32 to 64 µg/mL (≈ 55.3 to 111 µM) | 32 to 64 µg/mL (≈ 55.3 to 111 µM) | 32 to 64 µg/mL (≈ 55.3 to 111 µM) | 0.5 to 1 µg/mL (≈ 0.865 to 1.73 µM) | 2 to 4 µg/mL (≈ 3.46 to 6.92 µM) | < 0.25 µg/mL | 32 to 64 µg/mL (≈ 55.3 to 111 µM) | > 128 µg/mL | > 128 µg/mL | 8 to 16 µg/mL (≈ 13.8 to 27.7 µM) | < 30 µM
